Assay results: paper PMC3302783, “Position of the Third Na^+ Site in the Aspartate Transporter GltPh and the Human Glutamate Transporter, EAAT1” (PLoS ONE, 2012)

How the values were obtained:
GltPh S93A [1] = target: T1, GltPh S93A (Pyrococcus horikoshii, UniProt O59010, S93A); experiment: ^3H-L-aspartate uptake in proteoliposomes, GltPh S93A; format: biochemical
T1 construct: histidine tag (cleaved yes); made in house
Protocol: (§1) Pure protein was reconstituted into liposomes using a method modified from Gaillard et al., 1996 [37]. Escherichia coli polar lipids and 1-palmitoyl-2-oleoyl-sn-glycero-3-phosphocholine (Avanti Polar Lipids), at a ratio of 3∶1, were mixed, dried under nitrogen, and resuspended in internal buffer (100 mM KCl, 20 mM HEPES pH 7.5 or the appropriate internal buffer as indicated below). The lipid mixture was briefly sonicated using a cylindrical sonicator (Labatory Supplies Co.) and the lipid suspension was frozen in liquid nitrogen and thawed at 45°C several times. Liposomes were formed by extrusion through 400 nm polycarbonate membranes (Avanti Polar Lipids) and were treated with Triton X-100 at a 0.5∶1 (w/w) detergent to lipid ratio prior to the addition of protein at 0.25 µg protein/mg lipid. The protein/lipid mixture was left at room temperature for 30 minutes before detergent was removed using SM2 Biobeads (Biorad). The protein/lipid mixture was incubated, with gentle agitation, with three consecutive batches of the Biobeads (80 mg/ml). Proteoliposomes were concentrated by centrifugation at 150,000 g for 30 minutes in a Beckman Optima TLX centrifuge, resuspended at 100 mg lipid/mL and either used immediately or flash frozen in liquid nitrogen and stored at −80°C.
(§2) ^3H-L-aspartate transport by wild type GltPh and mutant GltPh transporters was assayed using a protocol modified from Gaillard et al., 1996 [37]. Proteoliposomes were loaded with internal buffer (100 mM KCl, 20 mM HEPES pH 7.5) by several freeze/thaw cycles followed by extrusion as described above. The uptake reaction was initiated by diluting the proteoliposomes (100 mg lipid/mL) 133 fold into reaction buffer pre-warmed to 30°C. The reaction buffer contained: 100 mM NaCl, 20 mM HEPES pH 7.5, 1 µM valinomycin and the indicated concentrations of ^3H-L-aspartate. […] The filters were washed once with 2 mL of ice cold quench buffer and assayed for radioactivity using a Trilux beta counter (Perkin Elmer). The Na^+ dependence of ^3H-L-aspartate transport was measured by varying extraliposomal Na^+ from 0.1 to 300 mM Na^+. […] Background levels of uptake were measured by diluting proteoliposomes into internal buffer (100 mM KCl, 20 mM HEPES pH 7.5) containing 1 µM valinomycin and the indicated concentrations of ^3H-L-aspartate.
(§3) Substrate responses were fitted by least squares as a function of substrate concentration to I/Imax = [S]/([S]+K 0.5), where I is the current, Imax is the maximal current, K 0.5 is the concentration of substrate that generates half-maximal response, and [S] is the substrate concentration. […] For ^3H-L-aspartate uptake by GltPh, initial rates were calculated from the linear portion of the curve and all data represent the mean ± s.e.m. of at least 3 experiments.

GltPh D312A = target: T2, GltPh D312A (Pyrococcus horikoshii, UniProt O59010, D312A); experiment: ^3H-L-aspartate uptake in proteoliposomes, GltPh D312A; format: biochemical; settings: 100 nM ^3H-L-aspartate, 100 mM NaCl
T2 construct: histidine tag (cleaved yes); made in house
T2 sequence (O59010 whole entry D312A): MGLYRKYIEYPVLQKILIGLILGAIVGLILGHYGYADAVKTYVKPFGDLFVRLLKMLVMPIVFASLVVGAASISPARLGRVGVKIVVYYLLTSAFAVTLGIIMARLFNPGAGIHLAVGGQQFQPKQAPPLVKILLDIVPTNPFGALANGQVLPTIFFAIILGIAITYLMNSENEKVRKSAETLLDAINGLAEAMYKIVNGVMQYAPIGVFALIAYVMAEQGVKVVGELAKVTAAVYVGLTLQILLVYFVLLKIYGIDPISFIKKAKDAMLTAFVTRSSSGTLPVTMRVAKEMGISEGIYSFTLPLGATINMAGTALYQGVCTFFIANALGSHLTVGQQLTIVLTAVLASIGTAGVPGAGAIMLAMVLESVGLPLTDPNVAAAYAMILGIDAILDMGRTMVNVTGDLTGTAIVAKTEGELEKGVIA
Protocol: (§4) Pure protein was reconstituted into liposomes using a method modified from Gaillard et al., 1996 [37]. Escherichia coli polar lipids and 1-palmitoyl-2-oleoyl-sn-glycero-3-phosphocholine (Avanti Polar Lipids), at a ratio of 3∶1, were mixed, dried under nitrogen, and resuspended in internal buffer (100 mM KCl, 20 mM HEPES pH 7.5 or the appropriate internal buffer as indicated below). The lipid mixture was briefly sonicated using a cylindrical sonicator (Labatory Supplies Co.) and the lipid suspension was frozen in liquid nitrogen and thawed at 45°C several times. […]
(§5) ^3H-L-aspartate transport by wild type GltPh and mutant GltPh transporters was assayed using a protocol modified from Gaillard et al., 1996 [37]. […] The filters were washed once with 2 mL of ice cold quench buffer and assayed for radioactivity using a Trilux beta counter (Perkin Elmer). The Na^+ dependence of ^3H-L-aspartate transport was measured by varying extraliposomal Na^+ from 0.1 to 300 mM Na^+. […] Background levels of uptake were measured by diluting proteoliposomes into internal buffer (100 mM KCl, 20 mM HEPES pH 7.5) containing 1 µM valinomycin and the indicated concentrations of ^3H-L-aspartate. […]

wild type GltPh = target: T3, wild type GltPh (Pyrococcus horikoshii, UniProt O59010); experiment: ^3H-L-aspartate uptake in proteoliposomes, wild type GltPh; format: biochemical
T3 construct: histidine tag (cleaved yes); made in house
T3 sequence (O59010 1-425): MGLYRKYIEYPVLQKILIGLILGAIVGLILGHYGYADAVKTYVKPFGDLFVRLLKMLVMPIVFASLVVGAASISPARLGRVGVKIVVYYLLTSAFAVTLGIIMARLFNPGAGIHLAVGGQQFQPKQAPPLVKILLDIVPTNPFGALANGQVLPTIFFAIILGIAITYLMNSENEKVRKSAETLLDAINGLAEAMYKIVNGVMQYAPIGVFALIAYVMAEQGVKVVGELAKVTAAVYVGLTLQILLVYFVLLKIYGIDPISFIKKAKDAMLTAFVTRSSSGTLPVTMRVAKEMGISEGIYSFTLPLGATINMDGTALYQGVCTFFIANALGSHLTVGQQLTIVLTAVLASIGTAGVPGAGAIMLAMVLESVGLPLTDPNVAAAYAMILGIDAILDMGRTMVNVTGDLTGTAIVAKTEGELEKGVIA
Protocol: as §1, §2, §3

GltPh T92A [2] = target: T4, GltPh T92A (Pyrococcus horikoshii, UniProt O59010, T92A); experiment: ^3H-L-aspartate uptake in proteoliposomes, GltPh T92A; format: biochemical
T4 construct: histidine tag (cleaved yes); made in house
T4 sequence (O59010 whole entry T92A): as the sequence (O59010 whole entry D312A) above, with T92A, A312D counted along it
Protocol: as §1, §2, §3

GltPh N310A = target: T5, GltPh N310A (Pyrococcus horikoshii, UniProt O59010, N310A); experiment: ^3H-L-aspartate uptake in proteoliposomes, GltPh N310A; format: biochemical; settings: 100 nM ^3H-L-aspartate, 100 mM NaCl
T5 construct: histidine tag (cleaved yes); made in house
T5 sequence (O59010 whole entry N310A): as the sequence (O59010 whole entry D312A) above, with N310A, A312D counted along it
Protocol: as §4, §5

EAAT1 T130A = target: T6, EAAT1 T130A (Homo sapiens, UniProt P43003, T130A); experiment: Two-electrode voltage clamp of Xenopus laevis oocytes expressing EAAT1 T130A; format: cell-based
T6 construct: expressed in transfected cells; host or cells: Xenopus laevis oocytes injected with cRNA
T6 sequence (P43003 whole entry T130A): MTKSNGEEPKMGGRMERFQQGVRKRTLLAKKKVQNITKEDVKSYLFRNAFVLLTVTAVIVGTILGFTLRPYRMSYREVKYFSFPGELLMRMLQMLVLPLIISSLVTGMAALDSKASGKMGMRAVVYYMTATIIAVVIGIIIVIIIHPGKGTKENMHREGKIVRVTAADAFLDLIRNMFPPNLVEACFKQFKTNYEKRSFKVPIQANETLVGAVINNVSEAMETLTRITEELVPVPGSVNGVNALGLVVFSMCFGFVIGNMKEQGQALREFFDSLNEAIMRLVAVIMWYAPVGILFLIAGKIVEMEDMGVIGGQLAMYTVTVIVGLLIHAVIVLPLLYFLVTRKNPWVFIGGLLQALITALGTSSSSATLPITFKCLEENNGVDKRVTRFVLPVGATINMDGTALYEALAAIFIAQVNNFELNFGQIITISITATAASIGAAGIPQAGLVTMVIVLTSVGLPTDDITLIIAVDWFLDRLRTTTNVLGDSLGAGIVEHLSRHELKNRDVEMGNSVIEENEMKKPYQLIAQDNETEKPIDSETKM
From the text: (§6) All chemicals were obtained from Sigma unless otherwise stated. Stage V oocytes were harvested from Xenopus laevis as described previously.
(§7) NMDG^+ was used as a Na^+ substitute to maintain ionic strength of the buffers.
(§8) Substrate responses were fitted by least squares as a function of substrate concentration to I/Imax = [S]/([S]+K 0.5), where I is the current, Imax is the maximal current, K 0.5 is the concentration of substrate that generates half-maximal response, and [S] is the substrate concentration. Na^+ concentration responses were fit to the Hill equation I/Imax = [S]^n/([S]^n+(K 0.5)^n) where n is the Hill coefficient and all other terms are as described above. For ^3H-L-aspartate uptake by GltPh, initial rates were calculated from the linear portion of the curve and all data represent the mean ± s.e.m. of at least 3 experiments.

GltPh T92A [3] = target: T4, GltPh T92A; experiment: Binding free energy of Na^+ ions by thermodynamic integration (MD), GltPh T92A; settings: GltPh T92A versus GltPh; from TI calculations
Protocol: (§9) The simulation systems are prepared using the software VMD [28]. The crystal structure of the GltPh trimer is embedded in a 1-palmitoyl-2-oleoyl-phosphatidylethanolamine (POPE) phospholipid bilayer and solvated in a box of water molecules with physiological concentration of NaCl. The final system consists of the trimer, 239 lipid molecules, 15688 water molecules and 35 Na^+ and 35 Cl^− ions. GltPh has a net charge of +6e, so to keep the system neutral 6 Cl^− ions are added in the apo system (more Cl^− ions are added when the bound Na^+ ions are included to preserve neutrality). […]
(§10) The binding free energies of Na^+ ions are calculated using the expression, ΔGb = ΔGint+ΔGtr , where the first term gives the free energy difference for the interactions of the ion in the binding site and bulk (i.e. translocation energy) and the second term measures the free energy loss due to reduction in translational entropy upon binding. […] The interaction energy is calculated using both the free energy perturbation (FEP) and the thermodynamic integration (TI) methods, [35]. […] Otherwise the binding free energy of the ion is determined from the average of the forward and backward calculations. […]

GltPh = system: GltPh; design: method as in PMID 17230192, PMID 19380583; settings: initial functional studies of GltPh; ref [9], [11]; cited from earlier work
EAAT1 = target: T7, EAAT1 (Homo sapiens, UniProt P43003); experiment: Two-electrode voltage clamp of Xenopus laevis oocytes expressing wild type EAAT1; format: cell-based
T7 construct: expressed in transfected cells; host or cells: Xenopus laevis oocytes injected with cRNA
T7 sequence (P43003 whole entry): as the sequence (P43003 whole entry T130A) above, with A130T counted along it
From the text: as §6, §7, §8

GltPh S93A [4] = target: T1, GltPh S93A; experiment: Binding free energy of Na^+ ions by thermodynamic integration (MD), GltPh S93A; settings: GltPh S93A versus GltPh; from TI calculations
Protocol: as §9, §10

EAAT1 T131A = target: T8, EAAT1 T131A (Homo sapiens, UniProt P43003, T131A); experiment: Two-electrode voltage clamp of Xenopus laevis oocytes expressing EAAT1 T131A; format: cell-based
T8 construct: expressed in transfected cells; host or cells: Xenopus laevis oocytes injected with cRNA
T8 sequence (P43003 whole entry T131A): as the sequence (P43003 whole entry T130A) above, with A130T, T131A counted along it
From the text: as §6, §7, §8

[5] = 100 mM Na^+, saturating substrate concentrations
[6] = ^3H-L-aspartate concentration-dependent transport, 100 mM NaCl
[7] = 100 nM ^3H-L-aspartate, Na^+ 0.1 to 300 mM
[8] = 100 µM L-glutamate, oocytes clamped at −60 mV

T1 sequence (O59010 whole entry S93A): as the sequence (O59010 whole entry D312A) above, with S93A, A312D counted along it

N[C@@H](CC(=O)O)C(=O)O [aspartate]
maximal velocity of ^3H-L-aspartate transport (GltPh S93A [1]; [5]): 58±3 nmol/mg protein/min
K 0.5 for aspartate transport (GltPh S93A [1]; [6]): 370 ± 60 nM
^3H-L-aspartate uptake versus background (GltPh D312A): did not exhibit ^3H-L-aspartate uptake over background levels
maximal velocity of ^3H-L-aspartate transport (wild type GltPh; [5]): 7.5±0.5 nmol/mg protein/min
K 0.5 for aspartate transport (wild type GltPh; [6]): 100 ± 10 nM
maximal velocity of ^3H-L-aspartate transport (GltPh T92A [2]; [5]): 42±1 nmol/mg protein/min
K 0.5 for aspartate transport (GltPh T92A [2]; [6]): 61 ± 10 nM
^3H-L-aspartate uptake versus background (GltPh N310A): did not exhibit ^3H-L-aspartate uptake over background levels

[Na+] [Na^+]
Hill coefficient of Na^+ dependence of aspartate transport (GltPh S93A [1]; 500 nM ^3H-L-aspartate): 1.9±0.2
K 0.5 for Na^+ dependence of aspartate transport (GltPh S93A [1]; 500 nM ^3H-L-aspartate, Na^+ 0.1 to 300 mM): 44 ± 2 mM
Hill coefficient of Na^+ dependence of aspartate transport (wild type GltPh; 100 nM ^3H-L-aspartate): 2.3±0.5
K 0.5 for Na^+ dependence of aspartate transport (wild type GltPh; [7]): 3.9 ± 0.4 mM
Na^+ dependence of L-glutamate transport: saturation at highest Na^+ concentration (EAAT1 T130A; 1 mM L-glutamate, 150 mM Na^+): not saturating
reduction of the binding free energy of Na3 by the mutation (GltPh T92A [3]): 7.5 kcal/mol
Hill coefficient of Na^+ dependence of aspartate transport (GltPh T92A [2]; 100 nM ^3H-L-aspartate): 2.1±0.2
K 0.5 for Na^+ dependence of aspartate transport (GltPh T92A [2]; [7]): 19 ± 1 mM
Hill coefficient (Na^+ ions co-transported with substrate) (GltPh): > 2
Hill coefficient of Na^+ dependence of L-glutamate transport (EAAT1; 300 µM L-glutamate): 2.8±0.4
K 0.5 for Na^+ dependence of L-glutamate transport (EAAT1; 300 µM L-glutamate, Na^+ 1 to 150 mM): 28 ± 4 mM
reduction of the binding free energy of Na3 by the mutation (GltPh S93A [4]): 5.9 kcal/mol
Na^+ dependence of L-glutamate transport: saturation at highest Na^+ concentration (EAAT1 T131A; 1 mM L-glutamate, 150 mM Na^+): not saturating

N[C@@H](CCC(=O)O)C(=O)O [L-glutamate]
current elicited by L-glutamate (EAAT1 T130A; [8]): 21±2 nA
K 0.5 for L-glutamate transport (EAAT1 T130A; oocytes clamped at −60 mV): 87 ± 3 µM
current elicited by L-glutamate (EAAT1; [8]): 395±20 nA
K 0.5 for L-glutamate transport (EAAT1; oocytes clamped at −60 mV): 15 ± 1 µM
current elicited by L-glutamate (EAAT1 T131A; [8]): 25±2 nA
K 0.5 for L-glutamate transport (EAAT1 T131A; oocytes clamped at −60 mV): 124 ± 11 µM
